Results as given in the Kinase Knowledgebase extract (Sharma et al. 2016).

Target: MAPK14 (human) (UniProt Q16539)
Experiment: Enzyme Assay

Chain of MAPK14 (human) (Q16539 whole entry, looked up): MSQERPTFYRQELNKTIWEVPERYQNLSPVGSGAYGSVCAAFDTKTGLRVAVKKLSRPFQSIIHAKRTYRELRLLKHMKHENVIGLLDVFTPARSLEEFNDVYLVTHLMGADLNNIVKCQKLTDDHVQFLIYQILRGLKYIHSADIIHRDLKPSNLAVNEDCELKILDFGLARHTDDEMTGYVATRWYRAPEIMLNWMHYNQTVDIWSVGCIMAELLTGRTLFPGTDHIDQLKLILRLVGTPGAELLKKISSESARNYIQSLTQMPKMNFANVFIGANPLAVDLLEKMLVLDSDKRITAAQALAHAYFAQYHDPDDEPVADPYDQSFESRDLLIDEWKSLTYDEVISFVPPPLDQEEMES

Row | SMILES | IC50
1 | C[C@H]1CCCCN1c1nnc2ccc(O[C@@H]3CC[C@H](NC(=O)Nc4cc(C(C)(C)C)nn4-c4cccc(CCN5CCCOCC5)c4)c4ccccc43)cn12 | < 10 nM
2 | COc1c(NC(=O)N[C@H]2CC[C@@H](Oc3ccc4nnc([C@@H]5CCCN5C)n4c3)c3ccccc32)cc(C(C)(C)C)cc1NS(C)(=O)=O | < 10 nM
3 | Cc1ccc(-n2nc(C(C)(C)C)cc2NC(=O)N[C@H]2CC[C@@H](Oc3ccc4nnc(-c5cccc(CN6CCOCC6)c5)n4c3)c3ccccc32)cc1 | < 10 nM
4 | Cc1ccc(-n2nc(C(C)(C)C)cc2NC(=O)N[C@H]2CC[C@@H](Oc3ccc4nnc([C@@H]5CCCCN5C)n4c3)c3ccccc32)cc1 | < 10 nM
5 | Cc1ccc(-n2nc(C(C)(C)C)cc2NC(=O)N[C@H]2CC[C@@H](Oc3ccc4nnc(C5CCNCC5)n4c3)c3ccccc32)cc1 | < 10 nM
6 | C[C@@H]1CCC[C@H](C)N1c1nnc2ccc(O[C@@H]3CC[C@H](NC(=O)Nc4cc(C(C)(C)C)nn4CCO)c4ccccc43)cn12 | < 10 nM
7 | Cc1ccc(-n2nc(C(C)(C)C)cc2NC(=O)N[C@H]2CC[C@@H](Oc3ccc4nnc(-c5ccc(CN6CCOCC6)cc5)n4c3)c3ccccc32)cc1 | < 10 nM
8 | C[C@H]1CCCCN1c1nnc2ccc(O[C@@H]3CC[C@H](NC(=O)Nc4cc(C(C)(C)C)nn4-c4cccc(CCN5CCN(C)CC5)c4)c4ccccc43)cn12 | < 10 nM
9 | Cc1ccc(-n2nc(C(C)(C)C)cc2NC(=O)N[C@H]2CC[C@@H](Oc3ccc4nnc(-c5ccccc5CN5CCOCC5)n4c3)c3ccccc32)cc1 | < 10 nM
10 | C[C@@H]1CCC[C@H](C)N1c1nnc2ccc(O[C@@H]3CC[C@H](NC(=O)Nc4cc(C(C)(C)C)nn4-c4cccc(OCCN(C)C)c4)c4ccccc43)cn12 | < 10 nM
11 | Cc1ccc(-n2nc(C(C)(C)C)cc2NC(=O)N[C@H]2CC[C@@H](Oc3ccc4nnc([C@@H]5CCCN5C(C)C)n4c3)c3ccccc32)cc1 | < 10 nM
12 | Cc1ccc(-n2nc(C(C)(C)C)cc2NC(=O)N[C@H]2CC[C@@H](Oc3ccc4nnc([C@@H]5CCCN5)n4c3)c3ccccc32)cc1 | < 10 nM
13 | Cc1ccc(-n2nc(C(C)(C)C)cc2NC(=O)N[C@H]2CC[C@@H](Oc3ccc4nnc(C5(N(C)C)CCCC5)n4c3)c3ccccc32)cc1 | < 10 nM
14 | Cc1ccc(-n2nc(C(C)(C)C)cc2NC(=O)N[C@H]2CC[C@@H](Oc3ccc4nnc([C@]5(C)CCCN5C)n4c3)c3ccccc32)cc1 | < 10 nM
15 | C[C@H]1CCCCN1c1nnc2ccc(O[C@@H]3CC[C@H](NC(=O)Nc4cc(C(C)(C)C)nn4-c4cccc(OCCN5C6CCCC5CC6)c4)c4ccccc43)cn12 | < 10 nM
16 | CN1CCC[C@H]1c1nnc2ccc(O[C@@H]3CC[C@H](NC(=O)Nc4cc(C(C)(C)C)nn4-c4cccc(SCCO)c4)c4ccccc43)cn12 | < 10 nM

Continued, values first:

Row | IC50 | SMILES
17 | < 10 nM | CC(C)(C)c1cc(NC(=O)N[C@H]2CC[C@@H](Oc3ccc4nnc(N5CCCCC5)n4c3)c3ccccc32)n(-c2cccc(CN3CCCCC3)c2)n1
18 | < 10 nM | CC(C)(C)c1cc(NC(=O)N[C@H]2CC[C@@H](Oc3ccc4nnc(N5CCCCC5)n4c3)c3ccccc32)n(-c2ccc(C#N)cc2)n1
19 | < 10 nM | C[C@H]1CCCCN1c1nnc2ccc(O[C@@H]3CC[C@H](NC(=O)Nc4cc(C(C)(C)C)nn4-c4ccnc(N(C)CCN(C)C)n4)c4ccccc43)cn12
20 | < 10 nM | CCN(C)CCOc1cccc(-n2nc(C(C)(C)C)cc2NC(=O)N[C@H]2CC[C@@H](Oc3ccc4nnc(N5CCCC[C@@H]5C)n4c3)c3ccccc32)c1
21 | < 10 nM | COCCN(C)Cc1ccc(-n2nc(C(C)(C)C)cc2NC(=O)N[C@H]2CC[C@@H](Oc3ccc4nnc(N5CCCC[C@@H]5C)n4c3)c3ccccc32)cc1
22 | < 10 nM | CN(C)CCCn1cc(-n2nc(C(C)(C)C)cc2NC(=O)N[C@H]2CC[C@@H](Oc3ccc4nnc(N5CCCCC5)n4c3)c3ccccc32)cn1
23 | < 10 nM | Cc1ccc(-n2nc(C(C)(C)C)cc2NC(=O)N[C@H]2CC[C@@H](Oc3ccc4nnc(N5CCCC[C@@H]5C)n4c3)c3ccccc32)cc1
24 | < 10 nM | Cc1ccc(-n2nc(C(C)(C)C)cc2NC(=O)N[C@H]2CC[C@@H](Oc3ccc4nnc(N5CCC[C@@H](O)C5)n4c3)c3ccccc32)cc1
